Paper PMC7170385, “The selenium-containing drug ebselen potently disrupts LEDGF/p75-HIV-1 integrase interaction by targeting LEDGF/p75” (Journal of Enzyme Inhibition and Medicinal Chemistry, 2020)
Where two headings read alike, the source gives them in different places.

Assays:
[1] = target: T1, LEDGF/p75 IBD-HIV-1 IN interaction (Homo sapiens, UniProt O75475); assay: HTRF-based LEDGF/p75 IBD-IN interaction assay
T1 sequence (O75475 347-429 limits assumed): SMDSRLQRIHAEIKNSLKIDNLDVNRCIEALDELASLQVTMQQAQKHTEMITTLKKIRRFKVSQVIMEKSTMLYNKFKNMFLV

[2] = system: LEDGF/p75-IN interaction; design: method as in PMID 21222490; details: cited from earlier work
[3] = target: Cryptosporidium parvum glucose-6-phosphate isomerase; design: method as in Eltahan et al.[46]; details: ref Eltahan et al.[46]; cited from earlier work
[4] = system: C-terminal domain of HIV-1 capsid; design: method as in Thenin-Houssier et al.[39]; details: ref Thenin-Houssier et al.[39]; cited from earlier work
[5] = system: Clostridium difficile cysteine protease domain; design: method as in Bender et al.[50]; details: ref Bender et al.[50]; cited from earlier work
[6] = target: Cryptosporidium parvum Inosine 5′-monophosphate dehydrogenase; design: method as in Sarwono et al.[54]; details: ref Sarwono et al.[54]; cited from earlier work
[7] = target: Bacillus anthracis thioredoxin reductase; details: ref Gustafsson et al.[49]; cited from earlier work
[8] = system: Pseudomonas aeruginosa Diguanylate Cyclases; design: method as in Lieberman et al.[55]; details: ref Lieberman et al.[55]; cited from earlier work
[9] = target: New Delhi metallo-β-lactamase; design: method as in Chiou et al.[51]; details: ref Chiou et al.[51]; cited from earlier work
[10] = target: Trypanosoma brucei hexokinase 1; design: method as in Gordhan et al.[47]; details: ref Gordhan et al.[47]; cited from earlier work
[11] = system: Escherichia coli thioredoxin reductase; design: method as in Lu et al.[48]; details: cell marked (Ki); ref Lu et al.[48]; cited from earlier work
[12] = system: Tumor marker endothelial 8 and protective antigen interaction; details: cited from earlier work
[13] = design: method as in PMID 26810656; details: previous study; read-out: half-maximal cytotoxic concentration (CC50); cited from earlier work
[14] = system: Hepatitis C Virus NS3 Helicase-Nucleic Acid interaction; design: method as in Mukherjee et al.[53]; details: ref Mukherjee et al.[53], cited from earlier work
[15] = system: Mycobacterium tuberculosis antigen 85; design: method as in Favrot et al.[52]; details: ref Favrot et al.[52]; cited from earlier work
[16] = target: LEDGF/p75 (Homo sapiens, UniProt O75475); assay: Biolayer interferometry (BLI) binding assay
Chain of LEDGF/p75 (O75475 whole entry): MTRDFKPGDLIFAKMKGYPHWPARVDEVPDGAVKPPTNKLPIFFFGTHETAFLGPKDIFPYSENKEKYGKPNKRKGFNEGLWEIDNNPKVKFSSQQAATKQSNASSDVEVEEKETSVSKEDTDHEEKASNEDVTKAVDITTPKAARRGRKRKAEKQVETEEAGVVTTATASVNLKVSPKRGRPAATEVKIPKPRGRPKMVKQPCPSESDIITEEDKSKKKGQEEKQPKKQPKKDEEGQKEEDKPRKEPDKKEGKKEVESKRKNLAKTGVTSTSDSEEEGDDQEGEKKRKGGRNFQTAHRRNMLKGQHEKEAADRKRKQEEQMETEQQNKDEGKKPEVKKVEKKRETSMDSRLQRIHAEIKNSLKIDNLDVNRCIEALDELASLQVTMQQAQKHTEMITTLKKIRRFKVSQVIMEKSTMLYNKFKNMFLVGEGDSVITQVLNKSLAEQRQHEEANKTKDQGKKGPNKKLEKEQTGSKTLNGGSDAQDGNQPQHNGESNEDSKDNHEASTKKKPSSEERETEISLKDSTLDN
Experimental: A protein binding assay was performed by biolayer interferometry (BLI) as described previously. First, purified recombinant LEDGF/p75 protein was biotinylated using the Thermo EZLink long-chain biotinylation reagent. Then, biolayer interferometry (BLI) assay was performed using an OctetRED96 instrument from PALL/ForteBio. All assays were run at 30 °C with continuous 1000 rpm shaking. PBS with 0.01% Tween-20 was used as the assay buffer. Briefly, biotinylated LEDGF/p75 protein was tethered on Super Streptavidin (SSA) biosensors (ForteBio) by dipping sensors into 200 µl per well 50 µg/ml protein solutions. The measurement processes were all under computer control. Programme procedures were established as follows: For the initial step, biosensors were washed in assay buffer for 300 s to form a baseline; the biosensors labelled with biotin-LEDGF/p75 were exposed to 100 µM compounds for association, and were monitored for 600 s; and then, the biosensors were moved back into assay buffer to disassociate for another 1800s. Data were fit globally and generated automatically by Octet User software (version 9.0.0.10; Fortebio).

[17] = system: HIV-1; design: method as in PMID 26810656; details: previous study; read-out: 50% effective concentration (EC50), replication of HIV-1; cited from earlier work

COc1cc(/C=C/C(=O)CC(=O)/C=C/c2ccc(O)c(OC)c2)ccc1O [Compound 2, Curcumin]
IC50 [1]: 14500 nM

O=S(=O)(c1c(O)c(Cl)cc(Cl)c1Cl)c1c(O)c(Cl)cc(Cl)c1Cl [Compound 3, p38 MAP kinase inhibitor IV]
IC50 [1]: 117000 nM

NC(=O)CI [Iodoacetamide]
IC50 ([1]; HTRF, 12-point dose-response 0.024 to 50 µM, His6-HIV-1 IN 50 nM, GST-IBD): > 1e+07 nM

CCN1C(=O)C=CC1=O [N-Ethylmaleimide]
IC50 [1]: 566000 nM

O[C@@H](CS)[C@@H](O)CS (racemic) [DTT, dithiothreitol]
Inhibitory effect of DTT on LEDGF/p75-IN interaction ([2]; at 50 µM): negligible | IC50 [2]: 4500 µM

CCN(CC)C(=S)SSC(=S)N(CC)CC [Disulfiram]
IC50 [1]: 23200 nM

O=c1c2ccccc2[se]n1-c1ccccc1 [Compound 1, 2-phenyl-1,2-benzisoselenazol-3-one]
IC50 [3]: 8.33 µM | IC50 [4]: 0.047 µM | IC50 [1]: 7700 nM | HTRF signal when IBD was pre-incubated with compound ([1]; IBD pre-incubated with ebselen): dramatical decrease | HTRF signal when IN was pre-incubated with compound ([1]; IN pre-incubated with ebselen): no obvious signal change | Inhibitory effect on LEDGF/p75 IBD-IN interaction in the presence of DTT ([1]; in the presence of 50 µM dithiothreitol (DTT)): completely abolished | Time-dependent inhibition (change of affinity over time) ([1]; over 1 h): increase in its affinity | IC50 [5]: 0.0069 µM | IC50 [6]: 0.71 µM | IC50 [7]: 1 µM | IC50 [8]: 5 µM | IC50 [9]: 0.38 µM | IC50 [10]: 0.05 µM | Ki [11]: 0.52 µM | IC50 [12]: 1.7 µM | CC50 [13]: 25.4 µM | IC50 ([14]; first value of cell 1.1/0.9, difference not explained, read-out: IC50 (first of two values printed)): 1.1 µM | IC50 ([14]; second value of cell 1.1/0.9, difference not explained, read-out: IC50 (second of two values printed)): 0.9 µM | IC50 [15]: 0.063 µM | Kd ([16]; BLI Octet Red, biotinylated LEDGF/p75, 30 °C): 0.0133 µM | Dissociation from LEDGF/p75 ([16]; BLI, dissociation in assay buffer 1800 s): do not show obvious dissociation | EC50 [17]: 1.99 µM
